Data set [1] is described as follows: Hygroscopicity test by DVS. The class given is physicochemical. To be noted: for DVS remark (adsorption at 90% RH): water adsorption at 90% RH. From the text:
Dynamic vapor sorption (DVS) is a method that has been used for a long time to investigate the interactions between active pharmaceutical ingredients (APIs), and pharmaceutical preparations and water. Here, to analyze the water absorption rate of a sample at a specific temperature, measurements are made by exposing the sample to the desired relative humidity using a DVS water sorption analyzer (hygroscopicity analyzer) until the change in weight of the sample stabilizes.

Data set [2] in a line: pKa of the free base. It is filed as physicochemical. The settings on record: natural conditions. As to the method: The method for preparing the salt of the present invention and the process of selecting the salt thereby are as follows. […] Specifically, acids that were appropriate for matching the pKa of the free base of Compound 1 described above were calculated by computer, and these acids were mainly identified as acids having a pKa of about 2 to 5.

Data set [3] has as its target hERG potassium ion channel (Homo sapiens, UniProt Q12809).
A short description of data set [4]: Oxidation stability test (30% H2O2). The class given is physicochemical.
Data set [5] relates to dextran sulfate sodium (DSS)-induced colitis model. Nature of the data set: DSS-induced colitis mouse model, disease activity index. The class given is in vivo. The settings on record: DSS mice. As to the method:
The effectiveness of Compound 1a against inflammatory bowel disease was evaluated using the dextran sulfate sodium (DSS)-induced colitis model. In the mouse model, inflammatory bowel disease was induced by administering DSS to mice at a concentration of 2.5% via drinking water. Mice were divided into a test group administered Compound 1a, a positive control group administered ozanimod or MTX (methotrexate), a vehicle group, and a normal control group, and each group had n=10. Compound 1, a compound of the present invention, was orally administered at doses of 5 and 10 mg/kg once a day for 7 days to the inflammatory bowel disease-induced model, and ozanimod as a positive control was administered orally at a dose of 5 mg/kg once a day, and MTX (methotrexate) as a positive control was administered intraperitoneally at a dose of 3 mg/kg three times a week.
DAI represents the total score of weight loss relative to initial weight, stool consistency, and degree of intestinal bleeding of the mouse. The criteria for calculation of DAI are shown in Table 10 below, and DAI was evaluated on days 0, 1, 2, 3, 4, 5, 6, 7, and 8.

Data set [6] can be described thus: Photostability test. It is filed as physicochemical. As to the method: For a photostability test, 10 mg of Compound 1a was exposed to 1.2 million lux hours of ultraviolet and visible light at room temperature. For an oxidation stability test, 0.2 mL of 30% H2O2 and 1 mg of Compound 1a were placed in a 2-mL vial and stored at 25° C. for up to 24 hours. The photostability and oxidation stability conditions used to evaluate the fumarate salt of Compound 1 and the evaluation results are as follows.

A short description of data set [7]: Standard stock solution stability, 40° C./75±5% RH. The class given is physicochemical. To be noted: 40° C./75% RH. The protocol: The stability of the crystalline compound was examined at 40° C./75±5% RH. Physical stability was examined through comparative XRPD analysis before and after the test, and chemical stability was examined by HPLC method. The experimental conditions used in the stability test for Compound 1a and the test results are as follows.
40° C./75±5% RH: Conditions in which the vial was open and upright.
(§1) A required amount (˜1 mg) of solid material was dissolved in 1 mL of a diluent (1:1 methanol/water), and the prepared solution was analyzed by HPLC.

A short description of data set [8]: Standard stock solution stability, 60° C./75±5% RH. The class given is physicochemical. To be noted: 2 weeks under 60° C./75±5% RH. The protocol:
The stability of the crystalline compound was under 60° C./75±5% RH conditions, and the purity thereof was examined by HPLC method. The experimental conditions used in the stability test for Compound 1a and the test results are as follows.
60° C./75±5% RH: Conditions in which the vial was open and upright.
as §1

Data set [9] can be described thus: pH stability and salinity stability, 40±2° C. It is filed as physicochemical.
Data set [10] in a line: pH stability and salinity stability, 40±2° C. It is filed as physicochemical. As to the method:
pH and salinity stability tests for the hemifumirate salt of Compound 1 were performed at an initial target concentration of 2 mg/mL. The pH and salinity stability conditions used to evaluate the hemifumirate salt of Compound 1 and the evaluation results are as follows.
• 40±2° C.: Conditions in which the vial was capped and upright • Storage container for stability: 2-mL screw neck clear glass vial (manufactured by La-Pha-Pack) • Target concentration: ˜ 2 mg/mL (adding the sample to 1 mL of medium, followed by vortexing for 30 seconds) • 500 μL of the test mixture was dissolved in 500 μL of a diluent (1:1 methanol/water), and the prepared solution was analyzed by HPLC without filtration.
This is another data set of the same source.

Data set [11] is described as follows: Corrosion of a sample stored together with the substance at 60° C. The class given is physicochemical. The settings on record: stored together with the sample for 2 weeks at 60° C. As to the method:
FIG. 12 depicts photograph showing the results of checking the degree of corrosion of a sample after storing each of the free base of Compound 1, Compound 1a, and a hydrochloride salt of Compound 1 together with the sample under 60° C. conditions for 2 weeks.

Data set [12] can be described thus: Solubility in aqueous media (HPLC). It is filed as physicochemical. The settings on record: same conditions as Compound 1a, some samples. As to the method: The solubility of Compound 1a prepared in Example 1 was evaluated in several different media, including pH 1.2 hydrochloric acid buffer, pH 3.0 citrate buffer, pH 4.7 acetate buffer, pH 6.8 phosphate buffer, simulated gastric fluid, fasted-state simulated intestinal fluid, fed-state simulated intestinal fluid, and water. About 2.17 mg of sample (based on the free base of Compound 1) for each medium was taken into a 2-mL transparent glass vial and […] of medium was added (constituents of the salt were considered Compound 1: counterion=1:0.5; target concentration: 2 mg/mL). The mixture was stirred using a magnetic stirrer at 250 RPM for 24 hours at 25° C. Next, the pH and appearance of the mixture were recorded and the mixture was filtered through a MultiScreen® HTS-HV 96-well plate (manufactured by Merck; 0.45-μm hydrophilic, low-protein-binding Durapore® membrane). Solubility was determined using HPLC, and a calibration curve was created by injecting a known concentration of Compound 1a. The filtered sample was injected (diluted appropriately as necessary) and the concentration of Compound 1a (mg/mL) in the filtrate was calculated from the calibration curve (taking salt coefficient into account). The analysis results are as follows.

The test system of data set [13] is adenine-induced chronic kidney disease model. Nature of the data set: Adenine-induced chronic kidney disease model. It is filed as in vivo. The settings on record: adenine-induced CKD mice, 10 mg/kg/day orally, 3 weeks. The protocol:
The antifibrotic effect of Compound 1a was evaluated using an adenine-induced chronic kidney disease model. 0.5% adenine (in 0.5% CMC) was orally administered to mice for 4 weeks to induce chronic kidney disease, and Compound 1a at 10, 30, and 90 mg/kg/day and the positive control substance telmisartan 10 mg/kg/day were administered orally to the mice for 3 weeks, followed by measurement of serum creatinine, serum BUN, and kidney hydroxyproline, and histopathology. In addition, the tubular-interstitial index value was determined based on the above measurement results.

The subject of data set [14] is unilateral ureteral obstruction (UUO) model. Nature of the data set: Unilateral ureteral obstruction (UUO) renal fibrosis model. It is filed as in vivo. The settings on record: UUO mice, 30 mg/kg/day orally, 2 weeks. The protocol:
The antifibrotic effect of Compound 1a in renal disease was evaluated using the unilateral ureteral obstruction (UUO) model, which is a renal fibrotic disease model. Kidney fibrosis was induced by unilateral ureteral obstruction of mice, and then Compound 1a at 10, 30, and 90 mg/kg/day and the positive control substance telmisartan at 30 mg/kg/day were orally administered to the mice once a day for 2 weeks.

Like-named read-outs stand apart in the source and are kept apart here. Some results are limits rather than exact numbers.

We go through 11 compounds from patent US12404252B2, “Salt of 2-amino-2-(2-(1-decyl-1H-1,2,3-triazol-4-yl)ethyl)propane-1,3-diol, and pharmaceutical composition containing same” (NEXTGEN BIOSCIENCE CO., LTD, priority 2021, dated 2025).

As a reminder, the pKa is the negative logarithm of the acid dissociation constant. Read a low pKa as a stronger acid or weaker base.

Chain of hERG potassium ion channel (Q12809 whole entry): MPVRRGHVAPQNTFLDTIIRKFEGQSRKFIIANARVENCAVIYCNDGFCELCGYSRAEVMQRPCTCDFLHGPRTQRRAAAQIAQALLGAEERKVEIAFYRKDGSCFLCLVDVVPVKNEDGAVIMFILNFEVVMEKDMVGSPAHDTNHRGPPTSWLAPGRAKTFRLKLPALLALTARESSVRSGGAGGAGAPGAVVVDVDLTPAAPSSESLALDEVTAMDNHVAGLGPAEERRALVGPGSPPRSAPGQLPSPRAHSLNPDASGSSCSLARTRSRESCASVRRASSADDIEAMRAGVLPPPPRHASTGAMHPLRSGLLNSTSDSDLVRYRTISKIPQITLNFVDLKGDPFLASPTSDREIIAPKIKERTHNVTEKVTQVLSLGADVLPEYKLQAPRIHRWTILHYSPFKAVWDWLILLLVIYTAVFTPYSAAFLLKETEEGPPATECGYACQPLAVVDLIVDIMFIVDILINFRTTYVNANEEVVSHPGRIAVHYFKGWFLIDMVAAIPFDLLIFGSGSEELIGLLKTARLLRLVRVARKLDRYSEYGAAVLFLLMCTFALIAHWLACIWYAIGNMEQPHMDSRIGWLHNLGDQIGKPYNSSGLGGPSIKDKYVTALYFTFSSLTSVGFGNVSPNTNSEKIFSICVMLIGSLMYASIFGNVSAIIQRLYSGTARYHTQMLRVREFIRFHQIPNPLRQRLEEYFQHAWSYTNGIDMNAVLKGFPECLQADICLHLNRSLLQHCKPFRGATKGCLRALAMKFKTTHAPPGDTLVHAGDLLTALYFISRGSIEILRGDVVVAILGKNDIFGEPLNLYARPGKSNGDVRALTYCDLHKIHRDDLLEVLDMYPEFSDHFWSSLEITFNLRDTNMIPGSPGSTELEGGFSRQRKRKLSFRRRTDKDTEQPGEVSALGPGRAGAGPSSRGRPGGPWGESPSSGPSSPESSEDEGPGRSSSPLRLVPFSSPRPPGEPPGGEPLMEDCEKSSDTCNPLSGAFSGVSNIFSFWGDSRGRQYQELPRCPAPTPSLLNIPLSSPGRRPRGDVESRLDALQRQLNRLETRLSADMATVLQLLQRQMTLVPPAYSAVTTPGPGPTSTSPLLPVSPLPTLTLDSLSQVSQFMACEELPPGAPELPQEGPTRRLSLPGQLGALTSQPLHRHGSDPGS

For `CCCCCCCCCCn1cc(CCC(N)(CO)CO)nn1.O=C(O)CC(O)(CC(=O)O)C(=O)O` [compound 6], the “DVS remark (adsorption at 90% RH)” value in [1] is 22.80%.

The compound `CCCCCCCCCCn1cc(CCC(N)(CO)CO)nn1` [Compound 1, 2-Amino-2-(2-(1-decyl-1H-1,2,3-triazol-4-yl)ethyl) propane-1,3-diol] gave a pKa in data set [2] of 8.12. The “compensated suppression rate (%) of hERG channel currents” value turned out to be 9.94±1.96% in data set [3] (1 μM), 13.98±4.48% in data set [3] (3 μM), 35.03±12.09% in data set [3] (10 μM) and 82.62±7.31% in data set [3] (30 μM). Also, the decomposition rate in data set [4] (oxidative stress conditions, after 20 hours) is given as not below 8%.

With `CN(Cc1cnc2nc(N)nc(N)c2n1)c1ccc(C(=O)N[C@@H](CCC(=O)O)C(=O)O)cc1` [MTX, methotrexate, reference compound], the “disease activity index (DAI) compared to negative control group (vehicle)” value in [5] (3 mg/kg intraperitoneally three times a week) is “statistically significantly decreased”.

Regarding `CC(=O)O.CCCCCCCCCCn1cc(CCC(N)(CO)CO)nn1` [compound 4], the “DVS remark (adsorption at 90% RH)” value in data set [1] was determined as 33.67%.

Turning to `CCCCCCCCCCn1cc(CCC(N)(CO)CO)nn1.O=C(O)CCC(=O)O` [compound 2], in data set [1], the “DVS remark (adsorption at 90% RH)” value came out at 19.42%.

For `CCCCCCCCCCn1cc(CCC(N)(CO)CO)nn1.Cl` [Comparative Example 1, reference compound], the Purity % came out at 98.75% in data set [6] (Photostability 1.2 million lux hours exposed); 99.35% in data set [6] (Photostability 1.2 million lux hours unexposed); 91.23% in data set [4] (30% H2O2 60° C. for 20 hours); 99.00% in data set [7] (1-week); 99.22% in data set [7] (2-week); 99.34% in data set [7] (Initial). Moreover, the Purity % in data set [9] (Saline (0.9% NaCl)/40° C., 1-week, listed as Hydrochloride salt of Compound 1) is given as 98.00%; in [9] (Saline (0.9% NaCl)/40° C., 1-week, listed as hydrochloride salt of Compound 1) it was not above 98%; in [9] (pH 6.8 phosphate buffer/40° C., 2-week, listed as Hydrochloride salt of Compound 1), 97.87%; in [9] (pH 6.8 phosphate buffer/40° C., 2-week, listed as hydrochloride salt of Compound 1) it was “less than 98%”; in [10] (Saline (0.9% NaCl)/40° C., Initial) it was 99.43%; in data set [10] (pH 6.8 phosphate buffer/40° C., 1-week) it was 98.04%. The compound also gave a Purity % in data set [10] (pH 6.8 phosphate buffer/40° C., Initial) of 98.93%. The “XRPD (physical stability)” value is listed as “Turned into liquid” in data set [7] (1-week, listed as Hydrochloride salt of Compound 1); “turned into a liquid phase” in [7] (1-week, listed as hydrochloride salt of Compound 1); “Crystalline” in data set [7] (Initial). The change in appearance result in [8] is “turned into a liquid phase”. Besides, the “behaviour in natural conditions” value in data set [1] (natural conditions) is listed as “exhibited deliquescence”. For the same compound, the “DVS remark (adsorption at 90% RH)” value in [1] and in [1] (listed as hydrochloride salt of Compound 1) was 49.5% each time. Moreover, the “degree of corrosion of the sample” value in [11] is reported as “corrosion occurred”. Besides, the “appearance in aqueous media” value in data set [12] was “undissolved suspension form in some samples”.

Take `CCCCCCCCCCn1cc(CCC(N)(CO)CO)nn1.O=C(O)CCCCC(=O)O` [compound 5]: the “DVS remark (adsorption at 90% RH)” value in [1] is recorded as 22.46%.

`CCCc1nc2c(C)cc(-c3nc4ccccc4n3C)cc2n1Cc1ccc(-c2ccccc2C(=O)O)cc1` [telmisartan, reference compound]: in data set [13], the “kidney fibrosis (tubular-interstitial index)” value was “statistically significantly decreased”. Also, the Kidney hydroxyproline result in [14] was “statistically significantly reduced”.

`CC(=O)O.CCCCCCCCCCn1cc(CCC(N)(CO)CO)nn1` [compound 3]: the “DVS remark (adsorption at 90% RH)” value in data set [1] is listed as 34.33%.

Consider `CC(C)Oc1ccc(-c2nc(-c3cccc4c3CC[C@@H]4NCCO)no2)cc1C#N` [ozanimod, reference compound], for which the “disease activity index (DAI) compared to negative control group (vehicle)” value in data set [5] (5 mg/kg orally once a day) was “statistically significantly decreased”.

Turning to `CCCCCCCCCCn1cc(CCC(N)(CO)CO)nn1` [Compound 1b, 2-amino-2-(2-(1-decyl-1H-1,2,3-triazol-4-yl)ethyl) propane-1,3-diol], in [1] (90% RH, listed as Example 2), the “hygroscopicity (DVS evaluation, in words)” value is “low hygroscopicity”. For the same compound, the “DVS remark (adsorption at 90% RH)” value in data set [1] (listed as Example 2) was determined as 4.563%.
